According to article PMC11009388, “Insights into the molecular mechanism of yellow cuticle coloration by a chitin-binding carotenoprotein in gregarious locusts” (Communications Biology, 2024):
“And” between values parts separate entries of the source, which are not always exact repeats. Equal entries are not always repeated.

Legend:
[1] = molecular target: T1, BBP (β-carotene-binding protein), recombinant (Schistocerca gregaria, UniProt A0A6N3ISN1); test: HPLC of carotenoids bound to purified protein; details: late induction in ECH/CAN-producing E. coli; competing with β-carotene in membranes
T1 construct: gene YPT; mature form residues 23-273, signal peptide removed; N-terminal His6 tag cleaved by 3C leaving GSHM; E. coli C41(DE3) making carotenoids
T1 sequence (A0A6N3ISN1 23-273): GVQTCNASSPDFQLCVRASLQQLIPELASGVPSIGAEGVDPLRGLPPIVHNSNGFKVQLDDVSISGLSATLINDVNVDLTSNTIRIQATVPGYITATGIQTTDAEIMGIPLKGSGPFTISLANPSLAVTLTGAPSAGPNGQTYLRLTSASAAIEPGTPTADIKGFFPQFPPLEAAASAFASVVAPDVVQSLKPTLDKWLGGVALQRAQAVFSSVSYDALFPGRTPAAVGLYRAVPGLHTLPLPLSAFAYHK

[2] = molecular target: T2, BmCBP (Bombyx mori, UniProt Q8MYA9); test: induced UV/Vis circular dichroism, absorbance spectrum, SECmelt; type: binding; details: 20 mM phosphate pH 7.2 (CD); sample has excess apoform
T2 construct: residues 68-297 (START domain), His-tag cleaved, preparation from previous work
T2 sequence (Q8MYA9 68-297): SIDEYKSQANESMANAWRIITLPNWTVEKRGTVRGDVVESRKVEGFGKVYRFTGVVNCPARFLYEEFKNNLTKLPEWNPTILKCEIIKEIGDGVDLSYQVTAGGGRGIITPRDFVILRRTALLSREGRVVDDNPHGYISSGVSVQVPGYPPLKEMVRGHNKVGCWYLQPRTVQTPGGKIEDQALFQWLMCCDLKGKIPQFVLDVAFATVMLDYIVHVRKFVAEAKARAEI

[3] = molecular target: T1, BBP (β-carotene-binding protein), recombinant; test: HPLC of bound carotenoid, absorbance, CD and Raman spectra, SEC of holoprotein; details: reconstituted in β-carotene-producing E. coli; 20 mM Tris-HCl pH 7.5, 150 mM NaCl
[4] = molecular target: native BBP extracted from the yellow locust cuticle (Schistocerca gregaria (endogenous in locust cuticle)); test: SEC; clarified soluble extract of yellow locust cuticle on Superdex 200 Increase 5/150, 0.45 mL/min; 20 mM Tris-HCl pH 7.5, 150 mM NaCl, 3 mM βME, 0.5 mM PMSF; apparent Mw from column calibration
[5] = molecular target: recombinant β-carotene-binding protein from Schistocerca gregaria in complex with β-carotene, BBP(βCar) (Schistocerca gregaria); test: cross-linking; glutaraldehyde 0.23%, 15 min at 30 °C, 20 mM HEPES pH 7.5, 150 mM NaCl; analysed by SDS-PAGE
[6] = molecular target: recombinant β-carotene-binding protein from Schistocerca gregaria in complex with β-carotene, BBP(βCar) (Schistocerca gregaria); test: SEC-MALS; Superdex 200 Increase 10/300, 20 mM Tris pH 7.5, 150 mM NaCl, 3 mM βME, 0.8 mL/min; self-association of BBP(βCar)
[7] = molecular target: recombinant β-carotene-binding protein from Schistocerca gregaria in complex with β-carotene, BBP(βCar) (Schistocerca gregaria); test: SEC; spectrochromatography on Superdex 200 Increase 5/150, 0.45 mL/min; 20 mM Tris-HCl pH 7.5, 150 mM NaCl, 3 mM βME, also with 2 M urea or 0.05% DOC, or 10 mM MES pH 6.0, 150 mM NaCl; apparent Mw from column calibration

## CC1=C(/C=C/C(C)=C/C=C/C(C)=C/C=C/C=C(C)/C=C/C=C(C)/C=C/C2=C(C)C(=O)CCC2(C)C)C(C)(C)CCC1=O [CAN, canthaxanthin]
[1]
  HPLC of carotenoids bound to purified protein: also exhibits capacity to bind ECH and, less efficiently, CAN

## CC1=C(/C=C/C(C)=C/C=C/C(C)=C/C=C/C=C(C)/C=C/C=C(C)/C=C/C2=C(C)C(=O)CCC2(C)C)C(C)(C)CCC1 [ECH, echinenone]
[1]
  HPLC of carotenoids bound to purified protein: BBP avidly binds β-carotene but also exhibits capacity to bind ECH

## CC1=C(/C=C/C(C)=C/C=C/C(C)=C/C=C/C=C(C)/C=C/C=C(C)/C=C/C2=C(C)C[C@@H](O)CC2(C)C)C(C)(C)C[C@H](O)C1 [ZEA, zeaxanthin]
[2]
  induced UV/Vis circular dichroism, absorbance spectrum, SECmelt: UV/Vis circular dichroism spectrum was distinctly different from that of the BmCBP complex with ZEA

## CC1=C(/C=C/C(C)=C/C=C/C(C)=C/C=C/C=C(C)/C=C/C=C(C)/C=C/C2=C(C)CCCC2(C)C)C(C)(C)CCC1 [βCar, β-carotene]
[3]
  HPLC of bound carotenoid, absorbance, CD and Raman spectra, SEC of holoprotein: recombinant BBP, like native BBP from locusts, indeed contains almost exclusively β-carotene

## native BBP extracted from the yellow locust cuticle (natural protein)
[4]
  stoichiometry N: 2

## recombinant β-carotene-binding protein from Schistocerca gregaria in complex with β-carotene, BBP(βCar) (from UniProt A0A6N3ISN1 23-273) (natural protein)
[5]
  stoichiometry N: 4 and 2
[6]
  stoichiometry N: 2
[7]
  stoichiometry N: 2 and 4
